Test results published in paper PMC6832257, “Design, Synthesis and Evaluation of New Indolylpyrimidylpiperazines for Gastrointestinal Cancer Therapy” (Molecules, 2019).
Read-outs that look alike come from different tables or passages of the source. Values belong to the compound of their own block, whether it stands above or below them.

What was measured:
[1] = target: T1, hA3AR (Homo sapiens, UniProt P0DMS8); assay: TGFα shedding assay at hA3AR; assay type: cell-based; settings: for Emax: HEK293 cells; for EC50: hA3AR-expressing HEK293 cells
T1 construct: expressed in transfected cells; host or cells: HEK293
T1 sequence (P0DMS8 1-318): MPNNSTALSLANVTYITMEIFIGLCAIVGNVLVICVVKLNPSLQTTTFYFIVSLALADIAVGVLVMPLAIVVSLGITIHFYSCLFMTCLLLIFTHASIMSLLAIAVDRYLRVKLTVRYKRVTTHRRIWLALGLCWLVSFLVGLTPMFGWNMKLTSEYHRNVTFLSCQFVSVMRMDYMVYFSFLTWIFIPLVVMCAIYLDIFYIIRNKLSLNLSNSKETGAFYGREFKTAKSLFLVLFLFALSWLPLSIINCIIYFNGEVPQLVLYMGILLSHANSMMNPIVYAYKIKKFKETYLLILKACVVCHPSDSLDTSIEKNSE
Experimental: This recently-developed assay utilizes an alkaline phosphatase-TGFα fusion protein reporter system to quantitatively evaluate specific GPCR-mediated G protein activation (shown in Figure 3) of test compounds [22].
Expression vectors (250 ng of AP-TGFα plasmid, 100 ng of hA2AAR/hA3AR plasmid and 50 ng of Gα protein) were transfected into HEK293 cells using Lipofectamine 2000 (1.25 μL/well) in 12-well plates. Transfection of siRNA (final concentration: 10 nM) was conducted with Lipofectamine RNAiMAX (1 μL/well), 48 h before assay to prevent interference from other signaling pathways. Transfected cells were detached with brief treatment with phosphate-buffered saline (PBS) containing 0.05% trypsin and 0.52 mM ethylenediaminetetraacetic acid (EDTA). The cell suspension was pelleted via centrifugation (190 g, 5 min). Trypsin was removed from the cells via resuspension in PBS, followed by 5 min of incubation at room temperature. Cells were subsequently pelleted with centrifugation (190 g, 5 min) and resuspended in Hank’s Balanced Salt Solution (HBSS) containing 5 mM 4-(2-hydroxyethyl)-1-piperazineethanesulfonic acid (HEPES) (pH 7.4). Resuspended cells were plated in 90 μL/well in 96-well plate and incubated at 37 °C in 5% CO2 for 30 min. 10 μL of 10X concentration of compounds were added and incubated for 1 h at 37 °C in 5% CO2. Plates were centrifuged at 190 g for 2 min. […] per well of conditioned medium (10 mM p-NPP, 40 mM Tris-HCl (pH 9.5), 40 mM NaCl & 10 mM MgCl2) was transferred into a conditioned medium plate and 80 µL per well of conditioned medium was added to the test compound plate. Absorbance at 405 nm (OD405) of both plates was read before and after a 1-h incubation at 37 °C using a microplate reader.

[2] = target: hA1; settings: cited from earlier work
[3] = target: T2, hA2AAR (Homo sapiens, UniProt P29274); settings: ratio of binding affinities; cited from earlier work
T2 construct: expressed in transfected cells; host or cells: HEK293

[4] = target: hA2B; settings: cited from earlier work
[5] = target: T1, hA3AR; settings: read-out: Ki hA3; cited from earlier work
[6] = test system: HCT-116 cell line; assay: MTT cytotoxicity assay, HCT-116; assay type: cell-based; settings: Homo sapiens; HCT-116, MTT, 72 h
Experimental: (§1) Human colorectal carcinoma cell lines, HCT-116 and Caco-2, were used as models for colorectal cancer cells overexpressing hA3AR. Human normal colon cell line CCD-18Co was used as a model for normal colon cells that express normal levels of hA3AR. The HCT-116, Caco-2 and CCD-18Co cell lines were all cultured in accordance with the ATCC protocols.
(§2) The cytotoxicity of compound 4 was determined by 3-(4,5-dimethylthiazol-2-yl)-2,5-diphenyltetrazolium bromide (MTT) assay. The cells were harvested from culture flasks by trypsinisation and seeded into 96-well microculture plates (Costar, Corning, USA) at the seeding density of 6000 cells per well or 10,000 per well (CCD18Co). After the cells were allowed to resume exponential growth for 24 h, they were exposed to compound 4 or 2-Cl-IB-MECA in media for 72 h. The drugs were diluted in complete medium at the desired concentration, and 100 μL of the drug solution was added to each well and serially diluted to other wells. After exposure for 72 h, drug solutions were replaced with 100 μL of MTT in complete media (5 mg ml^−1) and incubated for an additional 1 h. Subsequently, the medium was aspirated and the purple formazan crystals formed in viable cells were dissolved in 100 μL of dimethyl sulfoxide (DMSO) per well. Optical densities were measured at 570 nm with a microplate reader. […]

[7] = test system: Caco-2 cell line; assay: MTT cytotoxicity assay, Caco-2; assay type: cell-based; settings: Homo sapiens; Caco-2, MTT, 72 h
Experimental: as §1, §2

[8] = test system: HepG2 cell line; assay: MTT cytotoxicity assay, HepG2; assay type: cell-based; settings: Homo sapiens, 72 h
Experimental: The HepG2 cell line was also cultured in accordance with the ATCC protocol.
as §2, with “reader. The quantity of viable cells was expressed in terms of treated/control (T/C) values by comparison to untreated control cells, and 50% inhibitory concentrations (IC50) were calculated from concentration-effect curves by interpolation using GraphPad Prism (Version 5.0, GraphPad Software, USA).” for “reader.”

[9] = target: T1, hA3AR; settings: cited from earlier work
[10] = test system: CCD-18Co cell line; assay: MTT cytotoxicity assay, CCD-18Co; assay type: cell-based; settings: Homo sapiens, CCD-18Co normal colon cell line, 72 h
Experimental: as §1, §2

[11] = UV-vis stability assay; assay type: physicochemical; settings: 50 μM in water, RPMI-1640 and DMEM culture medium over 72 h
Experimental: Stock solution of 50 μM of compound 4 was prepared in DMSO. Two quartz cuvettes were soaked in 70% ethanol in water for 1h. The quartz cuvettes were subsequently left to dry in a biological safety cabinet. When both quartz cuvettes were dry, the quartz cuvettes, i.e., sample cuvette and blank cuvette, were filled with water or culture media (RPMI-1640 or DMEM) and parafilmed before being transferred into a UV-vis spectrophotometer (USA). The UV-vis spectrophotometer was auto-zeroed and the background was scanned from wavelengths of 200 nm to 800 nm. The sample cuvette was removed from the UV-vis spectrophotometer and transferred into the biological safety cabinet. Compound 4 was dissolved at a final concentration of 50 μM in 1.5 mL of water, RPMI or DMEM containing 10% FBS (without phenol red). The UV−vis profiles of the samples were monitored using UV-vis over 72 h at 1 h intervals from 200 to 800 nm.

[12] = test system: human colon carcinoma patients; settings: phase II; cited from earlier work
[13] = HEK293, efficacy as compared to adenosine, read-out: Emax

T2 sequence (P29274 whole entry): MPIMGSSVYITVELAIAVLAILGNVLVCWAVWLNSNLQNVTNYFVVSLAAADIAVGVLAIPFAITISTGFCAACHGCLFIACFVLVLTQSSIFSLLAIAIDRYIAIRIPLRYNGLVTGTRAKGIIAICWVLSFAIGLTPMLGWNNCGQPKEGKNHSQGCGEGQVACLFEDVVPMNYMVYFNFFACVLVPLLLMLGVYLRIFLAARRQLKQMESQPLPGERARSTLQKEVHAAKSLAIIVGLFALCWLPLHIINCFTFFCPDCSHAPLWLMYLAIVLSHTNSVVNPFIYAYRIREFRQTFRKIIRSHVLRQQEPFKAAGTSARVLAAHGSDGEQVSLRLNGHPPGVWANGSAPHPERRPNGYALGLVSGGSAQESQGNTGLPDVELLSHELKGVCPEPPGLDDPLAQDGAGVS

SMILES: Cc1cc(C)nc(N2CCN(C(=O)Cc3c(C)[nH]c4ccccc34)CC2)n1 [Compound 1, indolylpyrimidylpiperazine (IPP)]
Ki [2]: > 100 µM
selectivity hA2AAR/hA3AR [3]: > 12
Ki [4]: > 20 µM
Ki [5]: > 100 µM

SMILES: Cc1cc(C)nc(N2CCN(CCc3c(C)[nH]c4ccccc34)CC2)n1 [Compound 2, decarbonyl IPP]
Ki [2]: > 100 µM
Ki [4]: > 20 µM

SMILES: CNC(=O)[C@H]1O[C@@H](n2cnc3c(NCc4cccc(I)c4)nc(Cl)nc32)[C@H](O)[C@@H]1O [Compound 2-Cl-IB-MECA, 2-Cl-IB-MECA, reference compound]
IC50 [6]: 21 ± 6 µM
IC50 [7]: 31 ± 4 µM
IC50 [8]: 13 ± 3 µM
β-arrestin translocation response [9]: 102 ± 13%

SMILES: CNC(=O)[C@H]1O[C@@H](n2cnc3c(NCc4cccc(I)c4)ncnc32)[C@H](O)[C@@H]1O [IB-MECA]
β-arrestin translocation response [9]: 100 ± 7%
disease stabilization, share of patients [12]: 35%

SMILES: OC[C@H]1O[C@@H](n2cnc3c(NCc4cccc(I)c4)ncnc32)[C@H](O)[C@@H]1O [MRS541]
β-arrestin translocation response [9]: 30.8 ± 1.6%

Further lines, with some results ahead:

Emax [1, 13]: 100%
SMILES: Nc1ncnc2c1ncn2[C@@H]1O[C@H](CO)[C@@H](O)[C@H]1O [Adenosine, reference compound]

EC50 [1]: essentially inactive
melting point: 165 °C (dec.)
SMILES: Cc1cc(C)nc(N2CCN(CC(=O)c3c[nH]c4ccccc34)CC2)n1 [Compound 3, 2-(4-(4,6-Dimethylpyrimidin-2-yl)piperazin-1-yl)-1-(1H-indol-3-yl)ethanone]

Emax [1, 13]: 30%
Emax ([1]; efficacy as compared to adenosine): 31%
EC50 ([1]; read-out: EC50): 2.89 ± 0.55 µM
Stability (UV-vis) [11]: excellent stability
melting point: 162 °C (dec.)
SMILES: COc1cccc2c(C(=O)CN3CCN(c4nc(C)cc(C)n4)CC3)c[nH]c12 [Compound 4, 2-(4-(4,6-Dimethylpyrimidin-2-yl)piperazin-1-yl)-1-(7-methoxy-1H-indol-3-yl)ethanone]
IC50 [6]: 84 ± 9 µM
IC50 [7]: 77 ± 10 µM
IC50 [10]: 176 ± 48 µM
IC50 [8]: 30 ± 7 µM

Emax [1, 13]: 77%
EC50 ([1]; read-out: EC50): 13.4 ± 2.96 µM
melting point: 163 °C (dec.)
SMILES: Cc1cc(C)nc(N2CCN(CC(=O)c3c[nH]c4c(Cl)cccc34)CC2)n1 [Compound 5, 2-(4-(4,6-Dimethylpyrimidin-2-yl)piperazin-1-yl)-1-(7-chloro-1H-indol-3-yl)ethanone]

Emax [1, 13]: 72%
EC50 ([1]; read-out: EC50): 33.2 ± 16.5 µM
melting point: 165 °C (dec.)
SMILES: Cc1cc(C)nc(N2CCN(CC(=O)c3c[nH]c4c([N+](=O)[O-])cccc34)CC2)n1 [Compound 6, 2-(4-(4,6-Dimethylpyrimidin-2-yl)piperazin-1-yl)-1-(7-nitro-1H-indol-3-yl)ethanone]
